These are literature values, as cited in patent publication US9625464B2, “Fluorescent probe for plasma cell identification and isolation, and plasma cell identification or isolation method using the probe” (NATIONAL UNIVERSITY CORPORATION UNIVERSITY OF TOYAMA, priority 2010, dated 2017).

Molecules are shown by their SMILES.

The target in this data set is ATP-sensitive K+ channel. The note with it: read-out: dissociation constant to ATP-sensitive K+ channel.

For `COc1ccc(Cl)cc1C(=O)NCCc1ccc(S(=O)(=O)NC(=O)NC2CCCCC2)cc1` [glibenclamide], the Kd was 0.1 to 3.6 nM.
